Measured values from US11542282B2, “Low affinity poly(AD-ribose) polymerase 1 dependent cytotoxic agents” (THE TRUSTEES OF THE UNIVERSITY OF PENNSYLVANIA, priority 2018, dated 2023).

Tests used:
[1] = Metabolite analysis of monkey blood from the imaging studies; format: in vivo, rhesus macaques
Description: (§1) All animal studies were performed under protocols approved by the University of Pennsylvania Institutional Animal Care and Use Committee. Male rhesus macaques (13-21 year old) were sedated with ketamine/dexdomidor and anesthesia maintained for imaging with 1% isoflurane. Temperature was maintained with a recirculating water warm pad and vital signs such as blood pressure, pulse oximetry, and EKG were monitored continuously. Three rhesus macaques were scanned on the G-PET, a high sensitivity, high resolution PET scanner using gadolinium orthosilicate crystals incorporated into an Anger-logic detector developed for brain imaging. […]
The blood samples were centrifuged at 3000 G for 10 min to separate plasma and red blood cells. […] After the supernatant had been separated from the pellet, each portion was counted with a gamma counter (PerkinElmer Wizard 2480) to determine the extraction efficiency. […] The collected HPLC fractions were measured by Gamma Counter for further data analysis. Meanwhile the cold reference was also injected and monitored at 254 nm UV wavelength.
(§2) These images are similar to the those obtained and expected with [^18F]FTT (FIG. 5B), showing the PARPi to be non-BBB penetrable. Metabolic stability of [^18F]31 was assessed using the monkey blood from each imaging study and found 42% and 45% of the parent compound intact at 40 min and 37 min, respectively.

[2] = PET imaging of brain uptake in rhesus macaques; format: in vivo; settings: intravenous injection, all brain regions, FIG. 5A
Description: as §1, with “imaging. Data was acquired for up to 50 min (6×10 sec, 3×60 sec, 3×120 sec, 3×180 sec, 4×300 sec, and 1 ×600 sec) in list mode after an intravenous injection of 101.6 MBq [^18F]FTT to one of the rhesus macaques, and 91.4-128.8 MBq [^18F]31 to two of the rhesus macaques. A venous blood sample was drawn into a heparinized syringe at 37 min post […] injection for metabolite analysis.” for “imaging.”
as §2

[3] = Metabolic stability in rodent studies (mice blood and brain); format: in vivo; settings: 5 min
Description: Rodent studies were then performed with [^18F]31, including control and P-gp knockout (k/o) mice models to validate the tracer as a non-P-gp substrate.

parent compound intact ([1]; 37 min): 45%
parent compound intact ([1]; 40 min): 42%
brain uptake (PET) [2]: low brain uptake
brain uptake (PET) ([2]; listed as [18F]31): no appreciable brain uptake
decomposition of the parent compound [3]: over 80%
SMILES: O=C(c1cc(Cc2n[nH]c(=O)c3ccccc23)ccc1F)N1CCC(OCC[18F])CC1 [[^18F]31]
